Consider 22 compounds from patent US20200190087A1 (priority 2016, published 2020).

Where two headings read alike, the source gives them in different places. Bounds are passed on as bounds.

The target of assay [1] is Human α2δ-1 subunit of Cav2.2 calcium channel (Homo sapiens, UniProt P54289). Kind of assay: Human α2δ-1 subunit of Cav2.2 calcium channel assay ([3H]-Gabapentin binding). The conditions noted are these: human α2δ-1 enriched membranes, 15 nM [3H]-Gabapentin, binding expressed as Ki; read-out: α2δ1 binding activity. The method, then:
Human α2δ-1 Subunit of Cav2.2 Calcium Channel Assay
Human α2δ-1 enriched membranes (2.5 μg) were incubated with 15 nM of radiolabeled [3H]-Gabapentin in assay buffer containing Hepes-KOH 10 mM, pH 7.4. NSB (non specific binding) was measured by adding 10 μM pregabalin. The binding of the test compound was measured at five different concentrations. After 60 min incubation at 27° C., binding reaction was terminated by filtering through Multiscreen GF/C (Millipore) presoaked in 0.5% polyethyleneimine in Vacuum Manifold Station, followed by 3 washes with ice-cold filtration buffer containing 50 mM Tris-HCl, pH 7.4. Filter plates were dried at 60° C. for 1 hour and 30 μl of scintillation cocktail were added to each well before radioactivity reading. Readings were performed in a Trilux 1450 Microbeta radioactive counter (Perkin Elmer).

A further assay concerns the target T1, human μ-opioid receptor (Homo sapiens, UniProt P35372).
T1 construct: expressed in transfected cells; host or cells: CHO-K1
Put plainly: Human μ-opioid receptor radioligand assay ([3H]-DAMGO). In kind it is binding. How it is done:
Human μ-Opioid Receptor Radioligand Assay
To investigate binding properties of test compounds to human μ-opioid receptor, transfected CHO-K1 cell membranes and [^3H]-DAMGO (Perkin Elmer, ES-542-C), as the radioligand, were used. The assay was carried out with 20 μg of membrane suspension, 1 nM of [^3H]-DAMGO in either absence or presence of either buffer or 10 μM Naloxone for total and non-specific binding, respectively. Binding buffer contained Tris-HCl 50 mM, MgCl2 5 mM at pH 7.4. Plates were incubated at 27° C. for 60 minutes. After the incubation period, the reaction mix was then transferred to MultiScreen HTS, FC plates (Millipore), filtered and plates were washed 3 times with ice-cold 10 mM Tris-HCL (pH 7.4). Filters were dried and counted at approximately 40% efficiency in a MicroBeta scintillation counter (Perkin-Elmer) using EcoScint liquid scintillation cocktail. Preferably, transfected CHO-K1 cell membranes (20 μg) were incubated with 1 nM of [^3H]-DAMGO in assay buffer containing Tris-HCl 50 mM, MgCl2 5 mM at pH 7.4. NBS (non-specific binding) was measured by adding 10 μM Naloxone. The binding of the test compound was measured at five different concentrations. Plates were incubated at 27° C. for 60 minutes. After the incubation period, the reaction mix was then transferred to MultiScreen HTS, FC plates (Millipore), filtered and plates were washed 3 times with ice-cold 10 mM Tris-HCL (pH 7.4). Filters were dried and counted at approximately 40% efficiency in a MicroBeta scintillation counter (Perkin-Elmer) using EcoScint liquid scintillation cocktail.

Where [2] appears, read: transfected CHO-K1 cell membranes, 1 nM [3H]-DAMGO, binding expressed as Ki, read-out: Mu binding activity.

Chain of Human α2δ-1 subunit of Cav2.2 calcium channel (P54289 25-1103): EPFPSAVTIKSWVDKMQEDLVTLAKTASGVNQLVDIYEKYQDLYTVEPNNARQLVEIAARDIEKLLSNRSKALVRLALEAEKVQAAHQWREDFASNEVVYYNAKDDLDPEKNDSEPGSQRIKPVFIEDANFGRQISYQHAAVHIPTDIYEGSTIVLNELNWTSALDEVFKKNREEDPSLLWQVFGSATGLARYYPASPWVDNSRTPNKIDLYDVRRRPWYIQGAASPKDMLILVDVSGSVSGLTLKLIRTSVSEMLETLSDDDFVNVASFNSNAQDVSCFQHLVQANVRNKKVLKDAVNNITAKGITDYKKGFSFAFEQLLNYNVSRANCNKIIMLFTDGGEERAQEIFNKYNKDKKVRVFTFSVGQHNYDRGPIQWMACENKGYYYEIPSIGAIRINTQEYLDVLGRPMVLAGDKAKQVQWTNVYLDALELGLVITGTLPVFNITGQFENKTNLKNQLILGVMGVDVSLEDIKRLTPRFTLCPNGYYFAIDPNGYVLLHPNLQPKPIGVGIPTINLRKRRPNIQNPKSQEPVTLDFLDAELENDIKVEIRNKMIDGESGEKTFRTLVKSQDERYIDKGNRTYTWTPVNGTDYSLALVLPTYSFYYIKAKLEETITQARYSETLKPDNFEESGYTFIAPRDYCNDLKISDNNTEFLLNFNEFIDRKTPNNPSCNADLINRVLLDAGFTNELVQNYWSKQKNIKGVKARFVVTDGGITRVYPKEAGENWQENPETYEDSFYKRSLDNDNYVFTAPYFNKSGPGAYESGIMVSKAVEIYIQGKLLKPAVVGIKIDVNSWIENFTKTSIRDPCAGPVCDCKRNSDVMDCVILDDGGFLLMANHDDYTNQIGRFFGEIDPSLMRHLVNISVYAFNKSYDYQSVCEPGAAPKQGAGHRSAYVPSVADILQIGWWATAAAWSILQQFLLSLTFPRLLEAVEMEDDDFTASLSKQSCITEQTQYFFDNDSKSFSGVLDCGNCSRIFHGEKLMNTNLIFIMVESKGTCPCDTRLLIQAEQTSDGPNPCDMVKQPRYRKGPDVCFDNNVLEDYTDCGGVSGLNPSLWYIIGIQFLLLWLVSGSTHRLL
T1 sequence (P35372 whole entry): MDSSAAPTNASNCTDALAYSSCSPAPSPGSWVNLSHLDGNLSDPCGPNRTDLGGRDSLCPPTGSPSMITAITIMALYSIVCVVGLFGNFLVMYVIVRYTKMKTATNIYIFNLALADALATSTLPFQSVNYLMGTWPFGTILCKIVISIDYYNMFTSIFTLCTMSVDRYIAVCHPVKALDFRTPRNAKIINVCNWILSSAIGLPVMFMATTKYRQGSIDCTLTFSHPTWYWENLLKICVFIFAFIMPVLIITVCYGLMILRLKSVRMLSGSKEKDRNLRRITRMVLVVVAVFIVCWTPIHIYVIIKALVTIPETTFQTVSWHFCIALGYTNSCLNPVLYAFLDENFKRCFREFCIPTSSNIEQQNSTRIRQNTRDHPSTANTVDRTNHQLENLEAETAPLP

For `CCOc1ccc(-n2nc3c(C4CCN(Cc5ccccc5)CC4)nnc(C)c3c2C)c(F)c1` [Ex 26, 7-(1-Benzylpiperidin-4-yl)-2-(4-ethoxy-2-fluorophenyl)-3,4-dimethyl-2H-pyrazolo[3,4-d]pyridazine], the Ki (in assay [1]; at human μ-opioid receptor) was < 500 nM in each case.

Take `CCOc1ccc(-n2nc3c(C4CCN(Cc5ccc(F)cc5)CC4)nnc(C)c3c2C)c(F)c1` [Ex 27, 2-(4-Ethoxy-2-fluorophenyl)-7-(1-(4-fluorobenzyl)piperidin-4-yl)-3,4-dimethyl-2H-pyrazolo[3,4-d]pyridazine]: the Ki in assay [1] is 500 to 3000 nM; at human μ-opioid receptor (setting [2]), > 500 nM.

Consider `CCOc1ccc(-n2nc3c(C4CCN(Cc5ccccn5)CC4)nnc(C)c3c2C)c(F)c1` [Ex 28, 2-(4-Ethoxy-2-fluorophenyl)-3,4-dimethyl-7-(1-(pyridin-2-ylmethyl)piperidin-4-yl)-2H-pyrazolo[3,4-d]pyridazine], for which the figures for the Ki (in assay [1]; on human μ-opioid receptor) were 500 to 3000 nM and < 500 nM, respectively.

For the compound `CCOc1ccc(-n2nc3c(C4CCN(Cc5cccnc5)CC4)nnc(C)c3c2C)c(F)c1` [Ex 29, 2-(4-Ethoxy-2-fluorophenyl)-3,4-dimethyl-7-(1-(pyridin-3-ylmethyl)piperidin-4-yl)-2H-pyrazolo[3,4-d]pyridazine], the Ki is 500 to 3000 nM in assay [1] and > 500 nM on human μ-opioid receptor (setting [2]).

For `CCOc1ccc(-n2nc3c(C4CCN(Cc5ccncc5)CC4)nnc(C)c3c2C)c(F)c1` [Ex 30, 2-(4-Ethoxy-2-fluorophenyl)-3,4-dimethyl-7-(1-(pyridin-4-ylmethyl)piperidin-4-yl)-2H-pyrazolo[3,4-d]pyridazine], the results for the Ki (in assay [1]; on human μ-opioid receptor (setting [2])) were 500 to 3000 nM and > 500 nM, respectively.

With `CCOc1ccc(-n2nc3c(C4CCN(Cc5ncccc5O)CC4)nnc(C)c3c2C)c(F)c1` [Ex 31, 2-((4-(2-(4-Ethoxy-2-fluorophenyl)-3,4-dimethyl-2H-pyrazolo[3,4-d]pyridazin-7-yl)piperidin-1-yl)methyl)pyridin-3-ol], the Ki in assay [1] was 500 to 3000 nM; at human μ-opioid receptor (setting [2]) it was > 500 nM.

As for `CCOc1ccc(-n2nc3c(C4CCN(CC5CC5)CC4)nnc(C)c3c2C)c(F)c1` [Ex 32, 7-(1-(Cyclopropyl-methyl)piperidin-4-yl)-2-(4-ethoxy-2-fluorophenyl)-3,4-dimethyl-2H-pyrazolo[3,4-d]pyridazine], the results for the Ki (in assay [1]; at human μ-opioid receptor (setting [2])) were 500 to 3000 nM and > 500 nM, respectively.

Take `CCOc1ccc(-n2nc3c(C4CCN(CC5CCOCC5)CC4)nnc(C)c3c2C)c(F)c1` [Ex 33, 2-(4-Ethoxy-2-fluorophenyl)-3,4-dimethyl-7-(1-((tetrahydro-2H-pyran-4-yl)methyl)piperidin-4-yl)-2H-pyrazolo[3,4-d]pyridazine]: the Ki in assay [1] was 500 to 3000 nM; on human μ-opioid receptor (setting [2]) it was > 500 nM.

`CCOc1ccc(-n2nc3c(C4CCN(CCC5CCOCC5)CC4)nnc(C)c3c2C)c(F)c1` [Ex 34, 2-(4-Ethoxy-2-fluorophenyl)-3,4-dimethyl-7-(1-(2-(tetrahydro-2H-pyran-4-yl)ethyl)piperidin-4-yl)-2H-pyrazolo[3,4-d]pyridazine]: the results for the Ki (in assay [1]; at human μ-opioid receptor (setting [2])) were 3000 to 5000 nM and > 500 nM, respectively.

Take `CCOc1ccc(-n2nc3c(C4CCN(Cc5cn(Cc6ccccn6)nn5)CC4)nnc(C)c3c2C)c(F)c1` [Ex 35, 2-(4-Ethoxy-2-fluorophenyl)-3,4-dimethyl-7-(1-((1-(pyridin-2-ylmethyl)-1H-1,2,3-triazol-4-yl)methyl)piperidin-4-yl)-2H-pyrazolo[3,4-d]pyridazine]: the Ki in assay [1] was 500 to 3000 nM; at human μ-opioid receptor (setting [2]), > 500 nM.

On to `CCOc1ccc(-n2nc3c(C4CCCN(Cc5ccccc5)C4)nnc(C)c3c2C)c(F)c1` (centres unmarked) [Ex 36, 7-(1-Benzylpiperidin-3-yl)-2-(4-ethoxy-2-fluorophenyl)-3,4-dimethyl-2H-pyrazolo[3,4-d]pyridazine], for which the results for the Ki (in assay [1]; on human μ-opioid receptor (setting [2])) were 500 to 3000 nM and > 500 nM, respectively.

As to `CCOc1ccc(-n2nc3c(C4CN(CCc5ccccc5)C4)nnc(C)c3c2C)c(F)c1` [Ex 37, 2-(4-Ethoxy-2-fluorophenyl)-3,4-dimethyl-7-(1-phenethylazetidin-3-yl)-2H-pyrazolo[3,4-d]pyridazine], the Ki in assay [1] is 500 to 3000 nM; at human μ-opioid receptor (setting [2]) it was > 500 nM.

In the case of `CCOc1ccc(-n2nc3c(CCCNCc4ccccc4)nnc(C)c3c2C)c(F)c1` [Ex 38, N-Benzyl-3-(2-(4-ethoxy-2-fluorophenyl)-3,4-dimethyl-2H-pyrazolo[3,4-d]pyridazin-7-yl)propan-1-amine], the figures for the Ki (in assay [1]; at human μ-opioid receptor (setting [2])) were 500 to 3000 nM and > 500 nM, respectively.

`CCOc1ccc(-n2nc3c(CCCN(C)CCc4ccccc4)nnc(C)c3c2C)c(F)c1` [Ex 39, 3-(2-(4-Ethoxy-2-fluorophenyl)-3,4-dimethyl-2H-pyrazolo[3,4-d]pyridazin-7-yl)-N-methyl-N-phenethylpropan-1-amine]: the values for the Ki (in assay [1]; at human μ-opioid receptor (setting [2])) were 500 to 3000 nM and > 500 nM, respectively.

`CCOc1ccc(-n2nc3c(CCNCc4ccccc4)nnc(C)c3c2C)c(F)c1` [Ex 40, N-Benzyl-2-(2-(4-ethoxy-2-fluorophenyl)-3,4-dimethyl-2H-pyrazolo[3,4-d]pyridazin-7-yl)ethan-1-amine]: the values for the Ki (in assay [1]; on human μ-opioid receptor (setting [2])) were ≥ 5000 nM and > 500 nM, respectively.

On to `CCOc1ccc(-n2nc3c(CCNCCc4ccccc4)nnc(C)c3c2C)c(F)c1` [Ex 41, 2-(2-(4-Ethoxy-2-fluorophenyl)-3,4-dimethyl-2H-pyrazolo[3,4-d]pyridazin-7-yl)-N-phenethylethan-1-amine], for which the Ki in assay [1] is ≥ 5000 nM; at human μ-opioid receptor (setting [2]) it was > 500 nM.

With `CCOc1ccc(-n2nc3c(C4CCN(CCc5ccccn5)CC4)nnc(C)c3c2C)c(F)c1` [Ex 42, 2-(4-Ethoxy-2-fluorophenyl)-3,4-dimethyl-7-(1-(2-(pyridin-2-yl)ethyl)piperidin-4-yl)-2H-pyrazolo[3,4-d]pyridazine], the Ki in assay [1] is 500 to 3000 nM; at human μ-opioid receptor (setting [2]), > 500 nM.

Regarding `CCOc1ccc(-n2nc3c(C4CCN(CCc5ccccc5F)CC4)nnc(C)c3c2C)c(F)c1` [Ex 43, 2-(4-Ethoxy-2-fluorophenyl)-7-(1-(2-fluorophenethyl)piperidin-4-yl)-3,4-dimethyl-2H-pyrazolo[3,4-d]pyridazine], the Ki was 500 to 3000 nM in assay [1] and < 500 nM at human μ-opioid receptor.

On to `CCOc1ccc(-n2nc3c(C4CCN(CCc5cccc(F)c5)CC4)nnc(C)c3c2C)c(F)c1` [Ex 44, 2-(4-Ethoxy-2-fluorophenyl)-7-(1-(3-fluorophenethyl)piperidin-4-yl)-3,4-dimethyl-2H-pyrazolo[3,4-d]pyridazine], for which the Ki in assay [1] was 500 to 3000 nM; at human μ-opioid receptor, < 500 nM.

`CCOc1ccc(-n2nc3c(C4CCN(CCc5cccc(OC)c5)CC4)nnc(C)c3c2C)c(F)c1` [Ex 45, 2-(4-Ethoxy-2-fluorophenyl)-7-(1-(3-methoxyphenethyl)piperidin-4-yl)-3,4-dimethyl-2H-pyrazolo[3,4-d]pyridazine]: the Ki in assay [1] was 500 to 3000 nM; at human μ-opioid receptor (setting [2]), > 500 nM.

As for `CCOc1ccc(-n2nc3c(C4CCN(CCc5ccc(F)cc5)CC4)nnc(C)c3c2C)c(F)c1` [Ex 46, 2-(4-Ethoxy-2-fluorophenyl)-7-(1-(4-fluorophenethyl)piperidin-4-yl)-3,4-dimethyl-2H-pyrazolo[3,4-d]pyridazine], the results for the Ki (in assay [1]; at human μ-opioid receptor (setting [2])) were 500 to 3000 nM and > 500 nM, respectively.

Regarding `CCOc1ccc(-n2nc3c(C4CCN(CCc5cccnc5)CC4)nnc(C)c3c2C)c(F)c1` [Ex 47, 2-(4-Ethoxy-2-fluorophenyl)-3,4-dimethyl-7-(1-(2-(pyridin-3-yl)ethyl)piperidin-4-yl)-2H-pyrazolo[3,4-d]pyridazine], the Ki was 500 to 3000 nM in assay [1] and > 500 nM at human μ-opioid receptor (setting [2]).
